Experimental data taken from patent US20250163104A1, “MACROCYCLIC IMMUNOMODULATORS” (priority 2021, published 2025).
Where a SMILES comes first, the peptide text is derived from it. Bridges are numbered along the chain shown (N, C = ends). [ ]: non-standard residue; d: D form. The star is where a group is joined. ξ: configuration not given here. Phe(4-CONH2) = NC(=O)c1ccc(C[C@H](N)C(=O)O)cc1; Phe(4-COOH) = N[C@@H](Cc1ccc(C(=O)O)cc1)C(=O)O; Bip = N[C@@H](Cc1ccc(-c2ccccc2)cc1)C(=O)O; Phe(3-F) = N[C@@H](Cc1cccc(F)c1)C(=O)O; Phe(3-Me) = Cc1cccc(C[C@H](N)C(=O)O)c1; Val(3-OH) = CC(C)(O)[C@H](N)C(=O)O; 4Pal = N[C@@H](Cc1ccncc1)C(=O)O; Cha = N[C@@H](CC1CCCCC1)C(=O)O; dCha = N[C@H](CC1CCCCC1)C(=O)O; Thr(3ξ) = CC(O)[C@H](N)C(=O)O; Carboxymethyl = O=C(O)C*; Orn = NCCC[C@H](N)C(=O)O; Pra = C#CC[C@H](N)C(=O)O; Dab = NCC[C@H](N)C(=O)O; Dap = NC[C@H](N)C(=O)O

These compounds were tested against T1, human PD-1 / PD-L1-Ig binding on Jurkat cell line over-expressing human PD-1 (Jurkat-PD-1) (Homo sapiens, UniProt Q15116) (assay: Jurkat-PD-1 Cell Binding High-Content Screening Assay (CBA)). Conditions: Jurkat-PD-1 cells, PE-labeled PD-L1-Ig 20 nM final; read-out: Jurkat HPD1_PDL1 IC50.
T1 construct: expressed in transfected cells; host or cells: Jurkat
T1 sequence (Q15116 25-288): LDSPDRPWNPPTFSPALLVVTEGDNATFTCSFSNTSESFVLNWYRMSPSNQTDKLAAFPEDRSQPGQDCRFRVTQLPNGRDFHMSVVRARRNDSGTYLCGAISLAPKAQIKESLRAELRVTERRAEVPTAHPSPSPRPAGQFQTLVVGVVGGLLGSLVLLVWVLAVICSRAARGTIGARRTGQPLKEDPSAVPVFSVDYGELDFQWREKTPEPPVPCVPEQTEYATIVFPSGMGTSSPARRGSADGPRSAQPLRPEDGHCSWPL
Format: cell-based
Outline: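 Jurkat-hPD-1 cells in DMEM with 10% fetal calf serum receive test compound and are held at 37° C for 2 h. PE-labeled PD-L1-Ig is added at 20 nM final and left for 1 hour. Cells are then fixed and Hoechst-stained, and binding is measured by imaging.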

Structure (SMILES) | IC50 [nM]
CC(C)[C@@H]1NC(=O)[C@H](Cc2c[nH]c3ccccc23)NC(=O)[C@H](CC(=O)O)NC(=O)[C@H](Cc2ccc(OCC(=O)O)cc2)NC(=O)[C@H](Cc2ccncc2)NC(=O)CSC[C@@H](C(=O)N[C@@H](C)C(N)=O)NC(=O)[C@H]([C@@H](C)O)NC(=O)[C@H](C(C)C)NC(=O)[C@H](CC2CCCCC2)NC(=O)[C@H](CCN)NC(=O)[C@@H](CC2CCCCC2)NC(=O)[C@H](CCCN)NC(=O)[C@H](C(C)C)NC(=O)[C@H](Cc2ccc(-c3ccccc3)cc2)NC1=O [Compound 1636] ({CH2CO}-[4Pal]Y(Carboxymethyl)DWV[Bip]V[Orn][dCha][Dab][Cha]VTCA-NH2; thioether N-14) | 19.7
CC(C)C[C@@H]1NC(=O)[C@H](CC(N)=O)NC(=O)[C@@H](CC(C)C)NC(=O)[C@H](CN)NC(=O)[C@H](C(C)C)NC(=O)[C@H](Cc2ccc(-c3ccccc3)cc2)NC(=O)[C@H](C(C)C)NC(=O)[C@H](Cc2c[nH]c3ccccc23)NC(=O)[C@H](CC(=O)O)NC(=O)[C@H](Cc2ccncc2)NC(=O)[C@H](Cc2ccc(OCC(=O)O)cc2)NC(=O)CSC[C@@H](C(=O)NCC(N)=O)NC(=O)[C@H](CO)NC(=O)[C@H](C(C)C)NC1=O [Compound 1290] ({CH2CO}-Y(Carboxymethyl)[4Pal]DWV[Bip]V[Dap][dL]NLVSCG-NH2; thioether N-14) | 50.6
CC(C)C[C@@H]1NC(=O)[C@H](Cc2c[nH]c3ccccc23)NC(=O)[C@H](CC(=O)O)NC(=O)[C@H](Cc2ccc(OCC(=O)O)cc2)NC(=O)[C@H](CN)NC(=O)CSC[C@@H](C(=O)N[C@@H](C)C(N)=O)NC(=O)[C@H]([C@@H](C)O)NC(=O)[C@H](C(C)C)NC(=O)[C@H](CC(C)C)NC(=O)[C@H](CCN)NC(=O)[C@@H](CC(C)C)NC(=O)[C@H](CCCN)NC(=O)[C@H](C(C)C)NC(=O)[C@H](Cc2ccc(-c3ccccc3)cc2)NC1=O [Compound 1313] ({CH2CO}-[Dap]Y(Carboxymethyl)DWL[Bip]V[Orn][dL][Dab]LVTCA-NH2; thioether N-14) | 15.7
CC(C)C[C@@H]1NC(=O)[C@H](CCN)NC(=O)[C@@H](CC(C)C)NC(=O)[C@@H](CC(C)C)NC(=O)[C@H](C(C)C)NC(=O)[C@H](Cc2ccc(-c3ccccc3)cc2)NC(=O)[C@H](C(C)C)NC(=O)[C@H](Cc2c[nH]c3ccccc23)NC(=O)[C@H](CC(=O)O)NC(=O)[C@H](Cc2ccc(O)cc2)NC(=O)[C@H](CC(N)=O)NC(=O)CSC[C@@H](C(=O)N[C@@H](C)C(N)=O)NC(=O)[C@H]([C@@H](C)O)NC(=O)[C@H](C(C)C)NC1=O [Compound 1032] ({CH2CO}-NYDWV[Bip]V[dL][dL][Dab]LVTCA-NH2; thioether N-14) | 15.5
CC[C@H](C)[C@@H]1NC(=O)[C@H](Cc2ccc(-c3ccccc3)cc2)NC(=O)[C@H](C(C)C)NC(=O)[C@H](Cc2c[nH]c3ccccc23)NC(=O)[C@H](CC(=O)O)NC(=O)[C@H](Cc2ccc(OCC(=O)O)cc2)NC(=O)[C@H](CN)NC(=O)CSC[C@@H](C(=O)N[C@@H](C)C(N)=O)NC(=O)[C@H]([C@@H](C)O)NC(=O)[C@H](C(C)C)NC(=O)[C@H](Cc2cccc(F)c2)NC(=O)[C@H](CCN)NC(=O)[C@@H](CC(C)C)NC(=O)[C@H](CCCN)NC1=O [Compound 1669] ({CH2CO}-[Dap]Y(Carboxymethyl)DWV[Bip]I[Orn][dL][Dab][Phe(3-F)]VTCA-NH2; thioether N-14) | 23.5
CC(C)C[C@@H]1NC(=O)[C@H](Cc2c[nH]c3ccccc23)NC(=O)[C@H](CC(=O)O)NC(=O)[C@H](Cc2ccc(C(=O)O)cc2)NC(=O)[C@H](Cc2ccc(OCC(=O)O)cc2)NC(=O)CSC[C@@H](C(=O)NCC(N)=O)NC(=O)[C@H](CO)NC(=O)[C@H](C(C)C)NC(=O)[C@H](CC(C)C)NC(=O)[C@H](CC(N)=O)NC(=O)[C@@H](CC(C)C)NC(=O)[C@H](CCCN)NC(=O)[C@H](C(C)C)NC(=O)[C@H](Cc2ccc(-c3ccccc3)cc2)NC1=O [Compound 1283] ({CH2CO}-Y(Carboxymethyl)[Phe(4-COOH)]DWL[Bip]V[Orn][dL]NLVSCG-NH2; thioether N-14) | 24.5
Cc1cccc(C[C@@H]2NC(=O)[C@H](CC(=O)O)NC(=O)[C@H](Cc3ccc(C(=O)O)cc3)NC(=O)[C@H](Cc3ccc(OCC(=O)O)cc3)NC(=O)CSC[C@@H](C(=O)N[C@@H](C)C(N)=O)NC(=O)[C@H]([C@@H](C)O)NC(=O)[C@H](C(C)C)NC(=O)[C@H](CC3CCCCC3)NC(=O)[C@H](CCN)NC(=O)[C@@H](CC(C)C)NC(=O)[C@H](CCCN)NC(=O)[C@H](CCC(=O)O)NC(=O)[C@H](Cc3ccc(-c4ccccc4)cc3)NC(=O)[C@H](C(C)C)NC2=O)c1 [Compound 1426] | 23.3
C#CC[C@H](NC(=O)[C@H](CCN)NC(=O)[C@@H]1CSCC(=O)N[C@@H](CCCN)C(=O)N[C@@H](Cc2ccc(OCC(=O)O)cc2)C(=O)N[C@@H](CC(=O)O)C(=O)N[C@@H](Cc2cccc(C)c2)C(=O)N[C@@H](Cc2ccc(OCC(=O)O)cc2)C(=O)N[C@@H](Cc2ccc(-c3ccccc3)cc2)C(=O)N[C@@H](Cc2ccc(OCC(=O)O)cc2)C(=O)N[C@@H](CCCN)C(=O)N[C@H](CC(C)C)C(=O)N[C@@H](CCN)C(=O)N[C@@H](CC2CCCCC2)C(=O)N[C@@H](C(C)C)C(=O)N[C@@H](CO)C(=O)N1)C(N)=O [Compound 1855] ({CH2CO}-[Orn]Y(Carboxymethyl)D[Phe(3-Me)]Y(Carboxymethyl)[Bip]Y(Carboxymethyl)[Orn][dL][Dab][Cha]VSC[Dab][Pra]-NH2; thioether N-14) | 6.8

Further lines, results first:

IC50 [nM] | Structure (SMILES)
5 | C#CC[C@H](NC(=O)[C@H](CCN)NC(=O)[C@@H]1CSCC(=O)N[C@@H](CC(C)C)C(=O)N[C@@H](Cc2ccc(OCC(=O)O)cc2)C(=O)N[C@@H](CC(=O)O)C(=O)N[C@@H](Cc2cccc(C)c2)C(=O)N[C@@H](Cc2ccc(OCC(=O)O)cc2)C(=O)N[C@@H](Cc2ccc(-c3ccccc3)cc2)C(=O)N[C@@H](Cc2ccc(OCC(=O)O)cc2)C(=O)N[C@@H](CCCN)C(=O)N[C@H](CC(C)C)C(=O)N[C@@H](CCN)C(=O)N[C@@H](CC2CCCCC2)C(=O)N[C@@H](C(C)C)C(=O)N[C@@H](CCC(=O)O)C(=O)N1)C(=O)O [Compound 2707] ({CH2CO}-LY(Carboxymethyl)D[Phe(3-Me)]Y(Carboxymethyl)[Bip]Y(Carboxymethyl)[Orn][dL][Dab][Cha]VEC[Dab][Pra]-OH; thioether N-14)
4.9 | Cc1cccc(C[C@@H]2NC(=O)[C@H](CC(=O)O)NC(=O)[C@H](Cc3ccc(C(N)=O)cc3)NC(=O)[C@H](Cc3ccncc3)NC(=O)CSC[C@@H](C(=O)N[C@@H](CCN)C(N)=O)NC(=O)[C@H](CO)NC(=O)[C@H](C(C)(C)O)NC(=O)[C@H](CC3CCCCC3)NC(=O)[C@H](CCN)NC(=O)[C@@H](CC(C)C)NC(=O)[C@H](CCCN)NC(=O)[C@H](Cc3ccc(OCC(=O)O)cc3)NC(=O)[C@H](Cc3ccc(-c4ccccc4)cc3)NC(=O)[C@H](Cc3ccc(OCC(=O)O)cc3)NC2=O)c1 [Compound 2636] ({CH2CO}-[4Pal][Phe(4-CONH2)]D[Phe(3-Me)]Y(Carboxymethyl)[Bip]Y(Carboxymethyl)[Orn][dL][Dab][Cha][Val(3-OH)]SC[Dab]-NH2; thioether N-14)
13.2 | CC(C)C[C@H]1NC(=O)[C@H](CCCN)NC(=O)[C@H](CCC(=O)O)NC(=O)[C@H](Cc2ccc(-c3ccccc3)cc2)NC(=O)[C@H](C(C)C)NC(=O)[C@H](Cc2c[nH]c3ccccc23)NC(=O)[C@H](CC(=O)O)NC(=O)[C@H](Cc2ccc(C#N)cc2)NC(=O)[C@H](CN)NC(=O)CSC[C@@H](C(=O)N[C@@H](C)C(N)=O)NC(=O)[C@H]([C@@H](C)O)NC(=O)[C@H](C(C)C)NC(=O)[C@H](CC2CCCCC2)NC(=O)[C@H](CCN)NC1=O [Compound 2187]
11.8 | CC(C)C[C@H]1NC(=O)[C@H](CCCN)NC(=O)[C@H](C(C)C)NC(=O)[C@H](Cc2ccc(-c3ccccc3)cc2)NC(=O)[C@H](C(C)C)NC(=O)[C@H](Cc2c[nH]c3ccccc23)NC(=O)[C@H](CC(=O)O)NC(=O)[C@H](Cc2ccc(OCC(=O)O)cc2)NC(=O)[C@H](Cc2cnc[nH]2)NC(=O)CSC[C@@H](C(=O)N[C@H](C)C(N)=O)NC(=O)[C@H](C(C)O)NC(=O)[C@H](C(C)(C)O)NC(=O)[C@H](CC2CCCCC2)NC(=O)[C@H](CCN)NC1=O (stereo partly drawn) [Compound 2659] ({CH2CO}-HY(Carboxymethyl)DWV[Bip]V[Orn][dL][Dab][Cha][Val(3-OH)][Thr(3ξ)]C[dA]-NH2; thioether N-14)
4 | Cc1cccc(C[C@@H]2NC(=O)[C@H](CC(=O)O)NC(=O)[C@H](Cc3ccc(OCC(=O)O)cc3)NC(=O)[C@H](C(C)O)NC(=O)CSC[C@@H](C(=O)N[C@@H](CCN)C(N)=O)NC(=O)[C@H](CO)NC(=O)[C@H](C(C)(C)O)NC(=O)[C@H](CC3CCCCC3)NC(=O)[C@H](CCN)NC(=O)[C@@H](CC(C)C)NC(=O)[C@H](CCCN)NC(=O)[C@H](Cc3ccc(O)cc3)NC(=O)[C@H](Cc3ccc(-c4ccccc4)cc3)NC(=O)[C@H](Cc3ccc(C(N)=O)cc3)NC2=O)c1 (stereo partly drawn) [Compound 2633] ({CH2CO}-[Thr(3ξ)]Y(Carboxymethyl)D[Phe(3-Me)][Phe(4-CONH2)][Bip]Y[Orn][dL][Dab][Cha][Val(3-OH)]SC[Dab]-NH2; thioether N-14)
11.9 | Cc1cccc(C[C@@H]2NC(=O)[C@H](CC(=O)O)NC(=O)[C@H](Cc3ccc(OCC(=O)O)cc3)NC(=O)[C@H](CN)NC(=O)CSC[C@@H](C(N)=O)NC(=O)[C@H](CCCN)NC(=O)[C@H](C(C)C)NC(=O)[C@H](CC3CCCCC3)NC(=O)[C@H](CCN)NC(=O)[C@@H](CC(C)C)NC(=O)[C@H](CCCN)NC(=O)[C@H](Cc3ccc(O)cc3)NC(=O)[C@H](Cc3ccc(-c4ccccc4)cc3)NC(=O)[C@H](C(C)C)NC2=O)c1 [Compound 2264] ({CH2CO}-[Dap]Y(Carboxymethyl)D[Phe(3-Me)]V[Bip]Y[Orn][dL][Dab][Cha]V[Orn]C-NH2; thioether N-14)
